The structures appear in SMILES notation. pIC50: −log10 of the molar value.

For assay [1], the target named is T1, N-terminally His6-tagged recombinant kinase domain of the human c-Met (amino acids 960-1390) (Homo sapiens, UniProt P08581).
T1 construct: kinase domain of the human c-Met (amino acids 960-1390); His6 (N); made in house; host or cells: insect cells (SF21)
Put plainly: c-Met receptor tyrosine kinase homogeneous time-resolved fluorescence assay (alternative format). The note with it: HTRF; ATP 10 μM, 30 min at 22° C. The class given is biochemical. An excerpt: c-Met Receptor Tyrosine Kinase Homogeneous Time-Resolved Fluorescence Assay (Alternative Format):
The N-terminally His6-tagged recombinant kinase domain of the human c-Met (amino acids 960-1390), expressed in insect cells (SF21) and purified by Ni-NTA affinity chromatography and consecutive size exclusion chromatography (Superdex 200), is used. Alternatively, commercially available c-Met (Millipore) can be used. As substrate for the kinase reaction, the biotinylated poly-Glu,Tyr (4:1) copolymer (#61GT0BLC, Cis Biointernational, Marcoule, France) is used.
For the assay, 50 nL of a 100-fold concentrated solution of the test compound in DMSO is pipetted into a black low-volume 384-well microtiter plate (Greiner Bio-One, Frickenhausen, Germany). 2 μL of a solution of c-Met in assay buffer [25 mM Hepes/NaOH, pH 7.5; 5 mM MgCl2; 5 mM MnCl2; 2 mM dithiothreitol; 0.1% (v/v) Tween 20 (Sigma); 0.1% (w/v) bovine serum albumin] are added, and the mixture is incubated for 15 min at 22° C. to allow pre-binding of the test compound to the enzyme before the start of the kinase reaction. Then, the kinase reaction is started by the addition of 3 μL of a solution of adenosine triphosphate (ATP, 16.7 μM; final concentration in the 5 μL assay volume is 10 μM) and substrate (2.27 μg/mL, final concentration in the 5 μL assay volume is 1.36 μg/mL˜30 nM) in assay buffer, and the resulting mixture is incubated for a reaction time of 30 min at 22° C. […]
The resulting mixture is incubated for 1 h at 22° C. to allow the binding of the biotinylated phosphorylated peptide to the streptavidine-XLent and the PT66-Eu-chelate. Subsequently, the amount of phosphorylated substrate is evaluated by measurement of the resonance energy transfer from the PT66-Eu-chelate to the streptavidine-XLent. Therefore, the fluorescence emissions at 620 nm and 665 nm after excitation at 350 nm are measured in an HTRF reader, e.g. Rubystar (BMG Lab-technologies, Offenburg, Germany) or Viewlux (Perkin-Elmer). […]
A general note: In TR-FRET formats the signal depends on donor and acceptor labels being close together.

For assay [2], the target named is T2, Recombinant human c-Met protein (Homo sapiens, UniProt P08581).
T2 construct: purchased Invitrogen
Put plainly: c-Met receptor tyrosine kinase activity assay (NADH read-out). In kind it is biochemical. The note with it: c-Met 30 nM, ATP 30 μM, 100 min at 32° C. The procedure:
c-Met Receptor Tyrosine Kinase Activity Assay (NADH Read-Out):
Recombinant human c-Met protein (Invitrogen, Carlsbad, Calif., USA) is used. As substrate for the kinase reaction the peptide KKKSPGEYVNIEFG (JPT, Germany) is used. For the assay, 1 μL of a 51-fold concentrated solution of the test compound in DMSO is pipetted into a white 384-well microtiter plate (Greiner Bio-One, Frickenhausen, Germany). 25 μL of a solution of c-Met (final concentration 30 nM) and pyruvate kinase/lactate dehydrogenase (Roche Diagnostics, Mannheim, Germany; final concentration 8 mg/L) in assay buffer [3-(N-morpholino)propane-sulfonic acid (MOPS), 50 mM, pH 7; MgCl2, 10 mM; bovine serum albumin (BSA), 0.01%; Triton X 100, 0.01%; DTT, 2 mM] are added, and the mixture is incubated for 5 min at room temperature. Then, the kinase reaction is started by the addition of 25 μL of a solution of adenosine triphosphate (ATP, final concentration 30 μM), substrate (final concentration 100 μM), nicotinamide adenine dinucleotide (NADH, final concentration 50 μM) and dithiothreitol (DTT, final concentration 2 mM) in assay buffer, and the resulting mixture is incubated for a reaction time of 100 min at 32° C.
Subsequently, the amount of phosphorylated substrate is evaluated by measurement of the decrease of NADH fluorescence. Therefore, the fluorescence emissions at 465 nm after excitation at 340 nm is measured in a fluorescence reader, e.g. Tecan Ultra (Tecan, Männedorf, Switzerland). The data are normalised (enzyme reaction without inhibitor=0% inhibition; all other assay components but no enzyme=100% inhibition).

T1 sequence (P08581 960-1390): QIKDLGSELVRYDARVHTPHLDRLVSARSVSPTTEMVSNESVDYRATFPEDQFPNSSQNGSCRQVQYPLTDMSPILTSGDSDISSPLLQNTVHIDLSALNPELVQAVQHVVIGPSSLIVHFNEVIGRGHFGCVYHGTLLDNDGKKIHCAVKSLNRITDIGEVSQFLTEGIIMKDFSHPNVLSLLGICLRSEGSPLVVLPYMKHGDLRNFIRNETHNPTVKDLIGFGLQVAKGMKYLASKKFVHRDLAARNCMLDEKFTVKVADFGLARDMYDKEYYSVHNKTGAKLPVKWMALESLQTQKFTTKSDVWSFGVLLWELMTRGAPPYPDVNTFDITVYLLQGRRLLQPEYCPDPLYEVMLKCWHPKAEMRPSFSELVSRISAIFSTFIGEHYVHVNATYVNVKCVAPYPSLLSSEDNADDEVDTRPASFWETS
T2 sequence (P08581 25-1390): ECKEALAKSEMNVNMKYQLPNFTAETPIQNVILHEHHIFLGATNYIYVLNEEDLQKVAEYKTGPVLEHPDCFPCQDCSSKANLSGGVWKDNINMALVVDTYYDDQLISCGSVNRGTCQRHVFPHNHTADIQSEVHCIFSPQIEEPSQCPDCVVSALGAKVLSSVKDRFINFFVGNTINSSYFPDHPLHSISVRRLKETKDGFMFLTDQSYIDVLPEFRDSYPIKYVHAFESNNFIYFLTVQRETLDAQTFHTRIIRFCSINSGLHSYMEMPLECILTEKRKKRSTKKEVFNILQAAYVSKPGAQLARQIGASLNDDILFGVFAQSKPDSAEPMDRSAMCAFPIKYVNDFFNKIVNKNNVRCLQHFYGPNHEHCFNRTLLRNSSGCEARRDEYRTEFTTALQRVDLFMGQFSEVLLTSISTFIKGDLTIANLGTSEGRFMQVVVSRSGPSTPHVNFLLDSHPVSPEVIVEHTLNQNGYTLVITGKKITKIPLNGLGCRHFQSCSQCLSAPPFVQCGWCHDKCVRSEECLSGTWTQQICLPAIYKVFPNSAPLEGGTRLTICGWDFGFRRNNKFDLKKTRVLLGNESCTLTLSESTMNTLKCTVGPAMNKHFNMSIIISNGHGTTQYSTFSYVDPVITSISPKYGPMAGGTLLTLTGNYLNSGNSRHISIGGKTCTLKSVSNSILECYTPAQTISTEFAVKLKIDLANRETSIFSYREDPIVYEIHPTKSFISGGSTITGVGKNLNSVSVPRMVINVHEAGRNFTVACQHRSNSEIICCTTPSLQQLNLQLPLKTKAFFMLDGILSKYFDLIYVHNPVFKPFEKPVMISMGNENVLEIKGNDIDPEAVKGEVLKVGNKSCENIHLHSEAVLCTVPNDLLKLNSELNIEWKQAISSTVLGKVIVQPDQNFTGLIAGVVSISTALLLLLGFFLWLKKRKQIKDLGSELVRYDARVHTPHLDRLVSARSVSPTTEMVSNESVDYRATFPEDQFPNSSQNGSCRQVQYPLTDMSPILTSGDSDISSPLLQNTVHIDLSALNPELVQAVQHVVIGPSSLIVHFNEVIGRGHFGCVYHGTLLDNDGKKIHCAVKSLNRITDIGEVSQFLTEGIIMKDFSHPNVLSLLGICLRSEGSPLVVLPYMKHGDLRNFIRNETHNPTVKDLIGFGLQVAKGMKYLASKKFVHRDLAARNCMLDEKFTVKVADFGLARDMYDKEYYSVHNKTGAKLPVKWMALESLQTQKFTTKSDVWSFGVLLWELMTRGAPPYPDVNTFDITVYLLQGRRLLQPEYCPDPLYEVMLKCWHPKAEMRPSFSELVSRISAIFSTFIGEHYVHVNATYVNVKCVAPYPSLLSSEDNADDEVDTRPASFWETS

On to `CCc1n[nH]c2ccc(C3C(C#N)=C(C)N4CCOCC4=C3C#N)cc12` (racemic) [Example 4, 8-(3-Ethyl-1H-indazol-5-yl)-6-methyl-1,3,4,8-tetrahydropyrido[2,1-c][1,4]oxazine-7,9-dicarbonitrile], for which the pIC50 in assay [1] is 7.64. `CC1=C(C#N)C(c2ccc3[nH]nc(C)c3c2)C(C#N)=C2COCCN12` (single isomer, unassigned) [Example 2, 6-Methyl-8-(3-methyl-1H-indazol-5-yl)-1,3,4,8-tetrahydropyrido[2,1-c][1,4]oxazine-7,9-dicarbonitrile]: the pIC50 in assay [2] is 8.10; in assay [1], 9.00.

Consider `CCc1n[nH]c2ccc(C3C(C#N)=C(C)N4CCOCC4=C3C#N)cc12` (single isomer, unassigned) [Example 5, 8-(3-Ethyl-1H-indazol-5-yl)-6-methyl-1,3,4,8-tetrahydropyrido[2,1-c][1,4]oxazine-7,9-dicarbonitrile], for which, in assay [2], the pIC50 was 7.92. Consider `CCc1n[nH]c2ccc(C3C(C#N)=C(C)N4CCOCC4=C3C#N)cc12` (single isomer, unassigned) [Example 6, 8-(3-Ethyl-1H-indazol-5-yl)-6-methyl-1,3,4,8-tetrahydropyrido[2,1-c][1,4]oxazine-7,9-dicarbonitrile], for which the pIC50 in assay [2] is 7.06. Take `CC1=C(C#N)C(c2ccc3[nH]nc(-c4ccc(F)nc4)c3c2)C(C#N)=C2COCCN12` (stereo not shown) [Example 7, 8-[3-(6-Fluoropyridin-3-yl)-1H-indazol-5-yl]-6-methyl-1,3,4,8-tetrahydropyrido[2,1-c][1,4]-oxazine-7,9-dicarbonitrile]: the pIC50 in assay [2] is 7.64; in assay [1] it was 8.70.

As a reminder, the pIC50 is −log10 of the IC50, conventionally taken in molar units.

The values above are taken from patent US8642595B2, “Annellated 4-(indazolyl)-1,4-dihydropyridine derivatives and methods of use thereof” (Bayer Intellectual Property GmbH, priority 2008, dated 2014).
